Active and inactive are the calls of the source. The rule behind the calls is not given here.
Assays:
NCI-H460 = experiment: Antiproliferative activity against human NCI-H460 cells assessed as cell growth inhibition at 10 uM by SRB assay relative to control; type: functional
SK-MEL-2 = experiment: Antiproliferative activity against human SK-MEL-2 cells assessed as cell growth inhibition at 10 uM by SRB assay relative to control; type: functional; conditions: Homo sapiens, SK-MEL-2, dose 10 µM
M14 = experiment: Antiproliferative activity against human M14 cells assessed as cell growth inhibition at 10 uM by SRB assay relative to control; type: functional
SF-268 = experiment: Antiproliferative activity against human SF-268 cells assessed as cell growth inhibition at 10 uM by SRB assay relative to control; type: functional
T47D = experiment: Antiproliferative activity against estrogen receptor positive human T47D cells assessed as inhibition of cell growth at 10 uM by SRB assay; type: functional, cell-based
HOP-62 = experiment: Antiproliferative activity against human HOP-62 cells assessed as cell growth inhibition at 10 uM by SRB assay relative to control; type: functional
MCF7 = experiment: Antiproliferative activity against estrogen receptor positive human MCF7 cells assessed as inhibition of cell growth at 10 uM by SRB assay; type: functional, cell-based
[1] = molecular target: Serine/threonine-protein kinase B-raf (Homo sapiens) (UniProt P15056); experiment: Inhibition of B-RAF (unknown origin) at 10 uM by biochemical hotspot kinase assay relative to control
[2] = molecular target: Cyclin-dependent kinase 1/cyclin B (Homo sapiens) (UniProt P06493+P14635+Q8WWL7+O95067); experiment: Inhibition of CDK1/cyclin B (unknown origin) at 10 uM by biochemical hotspot kinase assay; type: protein-complex assay
[3] = molecular target: Fibroblast growth factor receptor 2 (Homo sapiens) (UniProt P21802); experiment: Inhibition of FGFR2 (unknown origin) at 10 uM by biochemical hotspot kinase assay
[4] = molecular target: Ephrin type-B receptor 4 (Homo sapiens) (UniProt P54760); experiment: Inhibition of EPHB4 (unknown origin) at 10 uM by biochemical hotspot kinase assay
[5] = molecular target: Mitogen-activated protein kinase kinase kinase kinase 1 (Homo sapiens) (UniProt Q92918); experiment: Inhibition of HPK1 (unknown origin) at 10 uM by biochemical hotspot kinase assay
[6] = molecular target: Misshapen-like kinase 1 (Homo sapiens) (UniProt Q8N4C8); experiment: Inhibition of MINK (unknown origin) at 10 uM by biochemical hotspot kinase assay relative to control
[7] = molecular target: Proto-oncogene tyrosine-protein kinase receptor Ret (Homo sapiens) (UniProt P07949); experiment: Inhibition of RET (unknown origin) at 10 uM by biochemical hotspot kinase assay
[8] = molecular target: Fibroblast growth factor receptor 1 (Homo sapiens) (UniProt P11362); experiment: Inhibition of FGFR1 (unknown origin) at 10 uM by biochemical hotspot kinase assay relative to control
[9] = molecular target: Interleukin-1 receptor-associated kinase 4 (Homo sapiens) (UniProt Q9NWZ3); experiment: Inhibition of IRAK4 (unknown origin) at 10 uM by biochemical hotspot kinase assay
[10] = molecular target: Serine/threonine-protein kinase 17A (Homo sapiens) (UniProt Q9UEE5); experiment: Inhibition of DRAK1 (unknown origin) at 10 uM by biochemical hotspot kinase assay relative to control
[11] = molecular target: Vascular endothelial growth factor receptor 1 (Homo sapiens) (UniProt P17948); experiment: Inhibition of VEGFR1 (unknown origin) at 10 uM by biochemical hotspot kinase assay relative to control
[12] = molecular target: Serine/threonine-protein kinase Chk1 (Homo sapiens) (UniProt O14757); experiment: Inhibition of CHK1 (unknown origin) at 10 uM by biochemical hotspot kinase assay
HT-29 [13] = experiment: Induction of cell cycle arrest in human HT-29 cells assessed as accumulation of cells at G1 phase at 5 uM incubated for 24 hrs by PI staining based analysis (reference value: 40.3%); type: functional
[14] = molecular target: Mitogen-activated protein kinase kinase kinase 7 (Homo sapiens) (UniProt O43318); experiment: Inhibition of TAK1 (unknown origin) at 10 uM by biochemical hotspot kinase assay relative to control
[15] = molecular target: Platelet-derived growth factor receptor alpha (Homo sapiens) (UniProt P16234); experiment: Inhibition of PDGFRa (unknown origin) at 10 uM by biochemical hotspot kinase assay
[16] = molecular target: Proto-oncogene tyrosine-protein kinase Src (Homo sapiens) (UniProt P12931); experiment: Inhibition of c-Src (unknown origin) at 10 uM by biochemical hotspot kinase assay
HT-29 [17] = experiment: Induction of cell cycle arrest in human HT-29 cells assessed as reduction in accumulation of cells at S phase at 2.5 to 10 uM incubated for 24 hrs by PI staining based analysis; type: functional; conditions: dose 2.5-10 µM
[18] = molecular target: Ribosomal protein S6 kinase alpha-1 (Homo sapiens) (UniProt Q15418); experiment: Inhibition of RSK1 (unknown origin) at 10 uM by biochemical hotspot kinase assay
[19] = molecular target: Wee1-like protein kinase (Homo sapiens) (UniProt P30291); experiment: Inhibition of WEE1 (unknown origin) at 10 uM by biochemical hotspot kinase assay
[20] = molecular target: RAF proto-oncogene serine/threonine-protein kinase (Homo sapiens) (UniProt P04049); experiment: Inhibition of c-RAF (unknown origin) at 10 uM by biochemical hotspot kinase assay relative to control
[21] = molecular target: Phosphorylase b kinase gamma catalytic chain, liver/testis isoform (Homo sapiens) (UniProt P15735); experiment: Inhibition of PHKG2 (unknown origin) at 10 uM by biochemical hotspot kinase assay relative to control
[22] = molecular target: Tyrosine-protein kinase ABL1 (Homo sapiens) (UniProt P00519); experiment: Inhibition of ABL1 (unknown origin) at 10 uM by biochemical hotspot kinase assay
[23] = molecular target: Serine/threonine-protein kinase pim-1 (Homo sapiens) (UniProt P11309); experiment: Inhibition of PIM1 (unknown origin) at 10 uM by biochemical hotspot kinase assay relative to control
[24] = molecular target: Mitogen-activated protein kinase 14 (Homo sapiens) (UniProt Q16539); experiment: Inhibition of p38a (unknown origin) at 10 uM by biochemical hotspot kinase assay
A498 = experiment: Antiproliferative activity against human A498 cells assessed as inhibition of cell growth at 10 uM by SRB assay relative to control; type: functional
[25] = molecular target: Protein kinase C alpha type (Homo sapiens) (UniProt P17252); experiment: Inhibition of PKCa (unknown origin) at 10 uM by biochemical hotspot kinase assay
[26] = molecular target: Tyrosine-protein kinase BTK (Homo sapiens) (UniProt Q06187); experiment: Inhibition of BTK (unknown origin) at 10 uM by biochemical hotspot kinase assay relative to control
[27] = molecular target: Tyrosine-protein kinase JAK3 (Homo sapiens) (UniProt P52333); experiment: Inhibition of JAK3 (unknown origin) at 10 uM by biochemical hotspot kinase assay
[28] = molecular target: TRAF2 and NCK-interacting protein kinase (Homo sapiens) (UniProt Q9UKE5); experiment: Inhibition of TNIK (unknown origin) at 10 uM by biochemical hotspot kinase assay relative to control
[29] = molecular target: Tyrosine-protein kinase Lck (Homo sapiens) (UniProt P06239); experiment: Inhibition of LCK (unknown origin) at 10 uM by biochemical hotspot kinase assay relative to control

Chain of Tyrosine-protein kinase ABL1 (Homo sapiens) (P00519 whole entry): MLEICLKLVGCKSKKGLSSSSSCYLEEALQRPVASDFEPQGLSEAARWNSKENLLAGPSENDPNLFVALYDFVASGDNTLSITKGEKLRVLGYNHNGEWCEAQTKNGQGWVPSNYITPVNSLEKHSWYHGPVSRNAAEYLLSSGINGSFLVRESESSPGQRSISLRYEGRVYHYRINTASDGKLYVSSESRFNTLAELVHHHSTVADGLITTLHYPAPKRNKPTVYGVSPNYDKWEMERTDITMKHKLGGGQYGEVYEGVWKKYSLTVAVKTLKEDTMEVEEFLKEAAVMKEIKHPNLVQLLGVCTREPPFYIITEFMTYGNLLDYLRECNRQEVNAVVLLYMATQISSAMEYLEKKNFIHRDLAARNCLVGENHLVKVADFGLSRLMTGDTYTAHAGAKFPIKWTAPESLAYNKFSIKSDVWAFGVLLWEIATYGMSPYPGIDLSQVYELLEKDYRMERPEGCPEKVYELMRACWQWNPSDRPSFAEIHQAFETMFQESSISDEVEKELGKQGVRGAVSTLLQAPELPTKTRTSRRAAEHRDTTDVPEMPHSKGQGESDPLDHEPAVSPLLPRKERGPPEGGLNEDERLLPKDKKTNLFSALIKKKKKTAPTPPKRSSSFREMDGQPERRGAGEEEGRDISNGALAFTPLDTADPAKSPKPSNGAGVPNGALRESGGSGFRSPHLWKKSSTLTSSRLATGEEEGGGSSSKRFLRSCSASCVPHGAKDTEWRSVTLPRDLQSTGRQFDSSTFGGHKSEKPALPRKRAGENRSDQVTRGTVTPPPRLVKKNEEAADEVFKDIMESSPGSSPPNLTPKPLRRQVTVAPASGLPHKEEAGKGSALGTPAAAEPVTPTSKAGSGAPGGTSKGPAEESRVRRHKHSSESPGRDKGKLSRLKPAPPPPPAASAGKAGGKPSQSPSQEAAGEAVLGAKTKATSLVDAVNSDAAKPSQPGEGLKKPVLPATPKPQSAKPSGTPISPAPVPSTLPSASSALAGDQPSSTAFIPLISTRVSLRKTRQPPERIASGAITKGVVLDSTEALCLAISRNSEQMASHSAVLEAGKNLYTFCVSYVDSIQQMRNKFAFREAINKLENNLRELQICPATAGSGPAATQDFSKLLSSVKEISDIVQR
Chain of Serine/threonine-protein kinase 17A (Homo sapiens) (Q9UEE5 whole entry): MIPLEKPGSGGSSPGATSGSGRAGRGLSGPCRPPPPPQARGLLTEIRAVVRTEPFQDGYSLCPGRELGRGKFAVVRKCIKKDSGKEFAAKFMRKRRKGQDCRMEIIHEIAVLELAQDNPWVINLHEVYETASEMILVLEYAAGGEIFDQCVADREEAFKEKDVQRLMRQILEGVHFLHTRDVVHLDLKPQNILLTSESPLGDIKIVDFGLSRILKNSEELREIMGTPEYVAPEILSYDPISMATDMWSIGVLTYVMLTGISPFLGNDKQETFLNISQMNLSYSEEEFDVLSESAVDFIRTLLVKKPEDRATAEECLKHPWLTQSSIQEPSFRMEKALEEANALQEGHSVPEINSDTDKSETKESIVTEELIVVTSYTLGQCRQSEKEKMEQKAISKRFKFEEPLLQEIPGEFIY
Chain of Wee1-like protein kinase (Homo sapiens) (P30291 whole entry, looked up): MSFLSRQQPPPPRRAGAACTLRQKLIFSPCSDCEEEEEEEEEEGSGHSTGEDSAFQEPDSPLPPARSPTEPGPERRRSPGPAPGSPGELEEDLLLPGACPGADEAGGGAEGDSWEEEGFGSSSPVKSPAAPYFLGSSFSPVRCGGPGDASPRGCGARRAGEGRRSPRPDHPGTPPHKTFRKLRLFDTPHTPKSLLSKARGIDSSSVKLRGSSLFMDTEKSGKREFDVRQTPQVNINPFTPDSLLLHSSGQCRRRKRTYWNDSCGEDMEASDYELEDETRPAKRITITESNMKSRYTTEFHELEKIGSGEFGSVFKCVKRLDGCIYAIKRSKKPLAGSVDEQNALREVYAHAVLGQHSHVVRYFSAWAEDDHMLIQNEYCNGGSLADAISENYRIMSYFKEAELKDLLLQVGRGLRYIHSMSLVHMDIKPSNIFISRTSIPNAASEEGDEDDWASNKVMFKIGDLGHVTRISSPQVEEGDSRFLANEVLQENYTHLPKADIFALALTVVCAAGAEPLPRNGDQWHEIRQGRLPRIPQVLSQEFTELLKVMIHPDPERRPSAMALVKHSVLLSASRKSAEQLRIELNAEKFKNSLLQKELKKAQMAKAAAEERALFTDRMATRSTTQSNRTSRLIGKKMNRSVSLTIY
Chain of Tyrosine-protein kinase JAK3 (Homo sapiens) (P52333 whole entry): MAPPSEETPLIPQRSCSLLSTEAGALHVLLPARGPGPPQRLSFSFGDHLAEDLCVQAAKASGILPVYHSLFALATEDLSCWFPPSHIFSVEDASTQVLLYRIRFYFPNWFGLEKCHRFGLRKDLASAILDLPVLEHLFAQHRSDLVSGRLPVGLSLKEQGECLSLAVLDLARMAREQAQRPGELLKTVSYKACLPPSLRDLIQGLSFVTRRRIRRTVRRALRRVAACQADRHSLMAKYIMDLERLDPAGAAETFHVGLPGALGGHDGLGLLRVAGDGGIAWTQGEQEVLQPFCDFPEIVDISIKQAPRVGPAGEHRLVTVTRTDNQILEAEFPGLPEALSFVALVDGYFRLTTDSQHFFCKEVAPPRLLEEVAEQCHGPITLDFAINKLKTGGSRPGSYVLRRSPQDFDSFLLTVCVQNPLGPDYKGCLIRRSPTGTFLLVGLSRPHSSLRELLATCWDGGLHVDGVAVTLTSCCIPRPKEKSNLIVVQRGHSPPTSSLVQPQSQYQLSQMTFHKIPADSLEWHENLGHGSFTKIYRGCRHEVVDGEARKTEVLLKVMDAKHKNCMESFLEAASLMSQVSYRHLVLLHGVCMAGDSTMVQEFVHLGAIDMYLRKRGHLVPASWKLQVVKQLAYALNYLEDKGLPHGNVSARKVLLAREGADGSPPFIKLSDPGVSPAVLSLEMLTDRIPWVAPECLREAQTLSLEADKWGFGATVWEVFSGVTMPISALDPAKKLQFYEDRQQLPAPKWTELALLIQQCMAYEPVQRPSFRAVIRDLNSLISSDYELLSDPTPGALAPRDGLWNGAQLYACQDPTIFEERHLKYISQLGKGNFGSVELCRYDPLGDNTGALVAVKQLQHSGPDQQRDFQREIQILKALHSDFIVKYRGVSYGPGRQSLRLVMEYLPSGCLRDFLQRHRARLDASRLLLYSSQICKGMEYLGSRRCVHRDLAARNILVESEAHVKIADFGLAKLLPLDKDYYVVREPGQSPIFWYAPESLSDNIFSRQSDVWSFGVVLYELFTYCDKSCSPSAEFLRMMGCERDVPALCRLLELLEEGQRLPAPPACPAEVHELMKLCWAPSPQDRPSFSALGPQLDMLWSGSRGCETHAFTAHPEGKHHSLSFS
Chain of Ribosomal protein S6 kinase alpha-1 (Homo sapiens) (Q15418 whole entry): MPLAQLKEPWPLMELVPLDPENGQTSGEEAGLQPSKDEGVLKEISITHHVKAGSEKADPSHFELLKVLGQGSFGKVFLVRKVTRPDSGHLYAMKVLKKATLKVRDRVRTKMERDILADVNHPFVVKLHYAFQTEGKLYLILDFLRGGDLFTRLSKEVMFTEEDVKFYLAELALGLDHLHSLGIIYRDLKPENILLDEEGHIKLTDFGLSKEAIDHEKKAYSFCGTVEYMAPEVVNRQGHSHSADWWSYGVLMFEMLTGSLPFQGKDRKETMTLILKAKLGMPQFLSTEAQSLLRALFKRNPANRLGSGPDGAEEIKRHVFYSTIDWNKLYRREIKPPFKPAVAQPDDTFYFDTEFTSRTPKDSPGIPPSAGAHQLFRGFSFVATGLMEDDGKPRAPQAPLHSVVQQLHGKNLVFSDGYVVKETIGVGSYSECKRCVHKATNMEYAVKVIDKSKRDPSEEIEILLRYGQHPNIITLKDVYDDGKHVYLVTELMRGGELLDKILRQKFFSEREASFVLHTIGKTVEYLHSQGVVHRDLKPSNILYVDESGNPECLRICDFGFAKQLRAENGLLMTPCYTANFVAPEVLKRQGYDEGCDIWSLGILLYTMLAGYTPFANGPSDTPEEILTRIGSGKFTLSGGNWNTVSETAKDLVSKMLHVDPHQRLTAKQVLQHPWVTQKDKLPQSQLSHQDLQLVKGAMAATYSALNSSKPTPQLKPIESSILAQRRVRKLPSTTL
Chain of Interleukin-1 receptor-associated kinase 4 (Homo sapiens) (Q9NWZ3 whole entry): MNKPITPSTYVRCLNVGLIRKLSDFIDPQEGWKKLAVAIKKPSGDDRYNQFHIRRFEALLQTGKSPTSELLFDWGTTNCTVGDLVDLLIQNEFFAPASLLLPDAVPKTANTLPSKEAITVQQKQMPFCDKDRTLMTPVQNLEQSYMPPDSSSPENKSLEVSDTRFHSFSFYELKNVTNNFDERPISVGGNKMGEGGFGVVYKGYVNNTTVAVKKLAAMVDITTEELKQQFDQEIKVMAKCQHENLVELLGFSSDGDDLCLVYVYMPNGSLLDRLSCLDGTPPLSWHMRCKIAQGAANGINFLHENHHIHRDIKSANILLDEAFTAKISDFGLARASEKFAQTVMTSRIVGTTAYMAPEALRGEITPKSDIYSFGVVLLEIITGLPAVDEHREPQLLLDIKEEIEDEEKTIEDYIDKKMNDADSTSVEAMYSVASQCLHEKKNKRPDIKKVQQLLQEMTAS
Chain of Serine/threonine-protein kinase Chk1 (Homo sapiens) (O14757 whole entry): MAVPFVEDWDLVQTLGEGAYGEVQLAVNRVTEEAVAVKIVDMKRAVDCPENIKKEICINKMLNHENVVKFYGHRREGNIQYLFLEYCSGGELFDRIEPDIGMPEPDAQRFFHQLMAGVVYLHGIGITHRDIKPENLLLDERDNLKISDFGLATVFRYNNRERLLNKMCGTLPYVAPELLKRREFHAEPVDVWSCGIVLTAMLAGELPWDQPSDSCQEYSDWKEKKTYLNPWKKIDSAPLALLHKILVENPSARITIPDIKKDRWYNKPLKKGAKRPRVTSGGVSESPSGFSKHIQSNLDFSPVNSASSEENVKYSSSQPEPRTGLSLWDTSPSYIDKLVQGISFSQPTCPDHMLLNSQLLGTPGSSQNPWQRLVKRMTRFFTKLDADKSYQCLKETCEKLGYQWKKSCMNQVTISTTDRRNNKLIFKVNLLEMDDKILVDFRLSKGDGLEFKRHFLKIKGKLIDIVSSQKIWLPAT

COc1cc2oc(-c3cccc(C(=O)Nc4ccc(Cl)cc4)c3)cc(=O)c2c(OC)c1OC
inhibition at 10 µM (NCI-H460): 74.8%
inhibition at 10 µM (SK-MEL-2): 68.6%
inhibition at 10 µM (M14): 107%
inhibition at 10 µM (SF-268): > 50%
inhibition (T47D): Active
inhibition at 10 µM (HOP-62): 87.2%
inhibition (MCF7): Active

COc1cc2oc(-c3cccc(C(=O)Nc4ccc(C)cc4)c3)cc(=O)c2c(OC)c1OC
inhibition [1]: 34.3%
inhibition [2]: inactive
inhibition [3]: inactive
inhibition [4]: inactive
inhibition [5]: inactive
inhibition [6]: 41%
inhibition [7]: inactive
inhibition [8]: 16.5%
inhibition [9]: inactive
inhibition [10]: 3.24%
inhibition [11]: 14.9%
inhibition [12]: inactive
Activity (HT-29 [13]): 59.1%
inhibition [14]: 7.06%
inhibition [15]: inactive
inhibition [16]: inactive
Activity (HT-29 [17]): Active
inhibition [18]: inactive
inhibition [19]: inactive
inhibition [20]: 3.26%
inhibition [21]: 8.33%
inhibition [22]: inactive
inhibition [23]: 6.26%
inhibition [24]: inactive
inhibition at 10 µM (A498): 94%
inhibition [25]: inactive
inhibition [26]: 9.9%
inhibition [27]: inactive
inhibition [28]: 46.1%
inhibition [29]: 0.68%

— ChEMBL document CHEMBL5260845, “Flavone-based arylamides as potential anticancers: Design, synthesis and in vitro cell-based/cell-free evaluations” (2020)
